# Legend:
# [1] = molecular target: T1, Toll-like receptor 7 (Homo sapiens, UniProt Q9NYK1); assay: Antagonist activity at gardiquimod stimulated human TRL7 overexpressed in HEK293 cells assessed as inhibition of NF kappa B/Ap-1 activation preincubated with compound for 30 mins followed by gardiquimod stimulation measured after 22 hrs by SEAP reporter assay; format: cell-based
# T1 sequence (Q9NYK1 whole entry): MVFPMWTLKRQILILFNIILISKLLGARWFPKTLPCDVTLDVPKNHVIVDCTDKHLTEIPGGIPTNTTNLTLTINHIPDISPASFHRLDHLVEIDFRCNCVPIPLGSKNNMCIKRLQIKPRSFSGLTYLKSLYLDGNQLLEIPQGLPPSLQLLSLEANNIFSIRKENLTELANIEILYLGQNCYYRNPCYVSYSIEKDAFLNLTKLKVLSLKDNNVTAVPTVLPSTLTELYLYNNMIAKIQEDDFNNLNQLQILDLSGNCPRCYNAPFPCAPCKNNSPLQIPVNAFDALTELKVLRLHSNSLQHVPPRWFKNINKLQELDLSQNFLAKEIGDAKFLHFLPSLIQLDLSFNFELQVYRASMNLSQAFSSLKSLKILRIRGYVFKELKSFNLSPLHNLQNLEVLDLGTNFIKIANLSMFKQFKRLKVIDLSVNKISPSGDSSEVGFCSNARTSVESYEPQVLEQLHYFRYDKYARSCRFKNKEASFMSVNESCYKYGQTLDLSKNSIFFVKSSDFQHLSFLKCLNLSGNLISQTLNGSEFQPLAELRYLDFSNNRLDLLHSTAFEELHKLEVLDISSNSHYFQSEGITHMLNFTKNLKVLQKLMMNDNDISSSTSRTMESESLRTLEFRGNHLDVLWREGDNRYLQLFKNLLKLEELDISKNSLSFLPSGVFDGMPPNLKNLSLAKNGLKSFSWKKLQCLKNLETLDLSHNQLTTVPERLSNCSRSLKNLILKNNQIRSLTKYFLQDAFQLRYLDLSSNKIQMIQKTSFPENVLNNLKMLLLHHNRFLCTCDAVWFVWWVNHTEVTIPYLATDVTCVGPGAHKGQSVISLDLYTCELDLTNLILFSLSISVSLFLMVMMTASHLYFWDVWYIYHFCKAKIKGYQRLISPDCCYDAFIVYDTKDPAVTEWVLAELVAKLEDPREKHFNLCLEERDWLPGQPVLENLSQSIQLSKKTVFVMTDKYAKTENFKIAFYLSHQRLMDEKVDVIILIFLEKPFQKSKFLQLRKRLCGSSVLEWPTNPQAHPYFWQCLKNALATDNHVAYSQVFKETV
# [2] = species: Homo sapiens; assay: Selectivity ratio of IC50 for human TLR9 to IC50 for human TLR7
# [3] = Toxicity in MRL/Ipr Systemic lupus erythematosus mouse model assessed as change in body weight at 10 mg/kg, po administered for 8 weeks and measured 24 hrs post final dose; format: organism-based; settings: in vivo, 1368 h
# [4] = system: Mus musculus; assay: Anti-inflammatory activity against MRL/Ipr Systemic lupus erythematosus mouse model assessed as inhibition of proteinuria at 10 mg/kg, po administered for 8 weeks and measured 24 hrs post final dose relative to control; format: functional; parameters: scale not given: the % may be the effect or the level left; settings: time 1368 hrs
# [5] = system: Mus musculus; assay: Anti-inflammatory activity against MRL/Ipr Systemic lupus erythematosus mouse model assessed as inhibition of urinary NGAL at 10 mg/kg, po administered for 8 weeks and measured 24 hrs post final dose relative to control; format: functional; parameters: scale not given: the % may be the effect or the level left; settings: time 1368 hrs
# [6] = Toxicity in MRL/Ipr Systemic lupus erythematosus mouse model assessed as relative spleen weight at 10 mg/kg, po administered for 8 weeks and measured 24 hrs post final dose relative to control; format: organism-based; settings: in vivo, 1368 h
# [7] = system: Mus musculus; assay: Anti-inflammatory activity against MRL/Ipr Systemic lupus erythematosus mouse model assessed as inhibition of anti-Sm/RNP Ab titer at 10 mg/kg, po administered for 8 weeks and measured 24 hrs post final dose relative to control; format: functional; parameters: scale not given: the % may be the effect or the level left; settings: time 1368 hrs
# [8] = system: Mus musculus; assay: Anti-inflammatory activity against MRL/Ipr Systemic lupus erythematosus mouse model assessed as inhibition of anti-dsDNA Ab titer at 10 mg/kg, po administered for 8 weeks and measured 24 hrs post final dose relative to control; format: functional; parameters: scale not given: the % may be the effect or the level left; settings: time 1368 hrs
# [9] = molecular target: T2, Toll-like receptor 8 (Homo sapiens, UniProt Q9NR97); assay: Antagonist activity at R848 stimulated human TRL8 overexpressed in HEK293 cells assessed as inhibition of NF kappa B/Ap-1 activation preincubated with compound for 30 mins followed by R848 stimulation measured after 22 hrs by SEAP reporter assay; format: cell-based
# T2 sequence (Q9NR97 whole entry): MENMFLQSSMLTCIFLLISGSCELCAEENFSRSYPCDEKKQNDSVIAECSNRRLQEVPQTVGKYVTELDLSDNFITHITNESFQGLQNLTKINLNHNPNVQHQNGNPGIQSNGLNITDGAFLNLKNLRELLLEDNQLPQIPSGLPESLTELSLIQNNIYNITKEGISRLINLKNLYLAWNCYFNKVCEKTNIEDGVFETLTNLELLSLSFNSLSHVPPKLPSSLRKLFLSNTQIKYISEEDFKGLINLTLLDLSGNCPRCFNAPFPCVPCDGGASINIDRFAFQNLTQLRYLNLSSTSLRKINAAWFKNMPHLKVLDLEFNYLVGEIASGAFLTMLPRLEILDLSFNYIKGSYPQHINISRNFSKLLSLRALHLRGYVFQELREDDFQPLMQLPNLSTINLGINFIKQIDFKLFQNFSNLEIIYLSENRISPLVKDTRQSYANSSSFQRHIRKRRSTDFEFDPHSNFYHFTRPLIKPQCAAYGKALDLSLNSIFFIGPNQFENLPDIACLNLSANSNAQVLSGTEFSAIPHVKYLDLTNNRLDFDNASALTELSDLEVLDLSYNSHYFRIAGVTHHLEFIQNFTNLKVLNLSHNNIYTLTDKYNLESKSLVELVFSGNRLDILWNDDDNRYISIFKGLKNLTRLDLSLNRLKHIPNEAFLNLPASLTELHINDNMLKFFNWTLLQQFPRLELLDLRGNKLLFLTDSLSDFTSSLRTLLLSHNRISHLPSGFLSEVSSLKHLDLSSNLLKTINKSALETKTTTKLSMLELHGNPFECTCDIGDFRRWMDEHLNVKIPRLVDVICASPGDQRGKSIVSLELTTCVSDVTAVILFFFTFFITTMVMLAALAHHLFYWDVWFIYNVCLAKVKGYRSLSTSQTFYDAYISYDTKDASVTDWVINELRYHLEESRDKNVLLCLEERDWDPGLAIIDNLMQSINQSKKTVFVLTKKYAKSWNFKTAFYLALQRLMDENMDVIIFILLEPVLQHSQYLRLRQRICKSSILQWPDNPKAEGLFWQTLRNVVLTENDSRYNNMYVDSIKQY
Compound,IC50 [1],Ratio IC50 [2],other results
COc1cc(-c2[nH]c3ccc(C4CCNCC4)cc3c2C(C)C)cc(C)n1,1.9 nM,,
CC(C)c1c(-c2ccnc(C3CC3)c2)[nH]c2ccc(C3CCNCC3)cc12,92 nM,,
Cc1cc(-c2[nH]c3ccc(C4CCNCC4)cc3c2C(C)C)ccn1,,160,
CC(C)c1c(-c2ccnc(CO)c2)[nH]c2ccc(C3CCNCC3)cc12,,19,
CCc1cc(-c2[nH]c3ccc(C4CCNCC4)cc3c2C(C)C)cc(C)n1,57 nM,,
Cc1nccc(-c2[nH]c3ccc(C4CCNCC4)cc3c2C(C)C)c1C,28 nM,25,
Cc1cc(-c2[nH]c3cc(C)c(C4CCNCC4)cc3c2C(C)C)ccn1,8.2 nM,,
Cc1cc(-c2[nH]c3ccc(C4CCNCC4)c(F)c3c2C(C)C)cc(C)n1,0.9 nM,,
CCc1c(-c2ccnc(C)c2)[nH]c2c(F)cc(C3CCNCC3)cc12,,1,
COc1cc(-c2[nH]c3ccc(C4CCNCC4)cc3c2C(C)C)ccn1,74 nM,,
C[C@]12C=CC(=O)C=C1CC[C@@H]1[C@@H]2[C@@H](O)C[C@@]2(C)[C@H]1CC[C@]2(O)C(=O)CO [PREDNISOLONE],,,Activity [3]: Toxic; Activity [4]: 77%; Activity [5]: 74%; Activity [6]: 88%; Activity [7]: 79%; Activity [8]: 85%
Cc1nc(C)c(C)c(-c2[nH]c3ccc(C4CCNCC4)cc3c2C(C)C)c1C,300 nM,,
Cc1cc(-c2[nH]c3ccc(C4CCNCC4)cc3c2C(C)C)cc(F)n1,,1050,
CNCCN1CCC(c2ccc3[nH]c(-c4cccnc4)c(C)c3c2)CC1,> 10000 nM,,
Cc1cnccc1-c1[nH]c2ccc(C3CCNCC3)cc2c1C(C)C,,91,
CCc1c(-c2ccnc(C)c2)[nH]c2ccc(C3CCNCC3)c(C)c12,14 nM,,
Cc1cc(-c2[nH]c3cc(F)c(C4CCNCC4)cc3c2C(C)C)ccn1,0.8 nM,,
CNCCN1CCC(c2ccc3[nH]c(-c4ccc(OC)nc4)c(C)c3c2)CC1,> 10000 nM,,
CNCCN1CCC(c2ccc3[nH]c(-c4cccc(OC)n4)c(C)c3c2)CC1,> 10000 nM,,
CNCCN1CCC(c2ccc3[nH]c(-c4cncc(OC)c4)c(C)c3c2)CC1,3300 nM,,
CC(C)c1c(-c2ccncc2)[nH]c2ccc(C3CCNCC3)cc12,29 nM,,
Cc1cc(-c2[nH]c3ccc(C4CCNCC4)cc3c2C(C)C)cc(C2CC2)n1,22 nM,,
CCc1c(-c2ccnc(C)c2)[nH]c2cc(F)c(C3CCNCC3)c(F)c12,13 nM,,
CCc1c(-c2ccnc(C)c2)[nH]c2ccc(C3CCNCC3)cc12,24 nM,,
Cc1cc(-c2[nH]c3ccc(C4CCNCC4)cc3c2C(C)C)c(C)cn1,,370,
Cc1cc(-c2[nH]c3ccc(C4CCNCC4)cc3c2C(C)C)c(C)c(C)n1,,130,
CC(C)c1c(-c2ccncc2CO)[nH]c2ccc(C3CCNCC3)cc12,200 nM,,
Cc1cc(-c2[nH]c3cc(C(F)(F)F)c(C4CCNCC4)cc3c2C(C)C)ccn1,17 nM,77,IC50 [9]: 420 nM

# Source: ChEMBL document CHEMBL5131534, “Identification of 2-Pyridinylindole-Based Dual Antagonists of Toll-like Receptors 7 and 8 (TLR7/8)” (ACS Med Chem Lett, 2022)
